One data set concerns MV4-11 cells. Nature of the data set: Cell viability assay (CellTiter-Glo), MV4-11. In kind it is cell-based. To be noted: Homo sapiens, MV4-11, 24 hours, 1% FBS, read-out: Average pCC50 by molecule MV4-11 (converted). The source says: (§1) The effect of various compounds of the invention on the viability of MV4-11 and ARH-77 cell lines was investigated, using the CTG protocol described below.
(§2) MV4-11 cell lines are derived from acute myeloid leukaemia and it is described in the literature as a MCL-1 dependent cell line, as opposed to lymphoblast-like ARH-77 cell line, which is described as independent of MCL-1 (Tron A E et al. Nat Commun. 2018; 9: 5341; Caenepeel S et al. Cancer Discov. 2018 December; 8(12): 1582-1597).
(§3) Cells (MV4-11 or ARH-77) were seeded on […] in a growth medium with 1% FBS. Next, compound stocks were pre-diluted in DMSO and added directly to the cell culture media (final DMSO concentration: 0.5%). Compound concentrations used in this assay: 1/3 dilutions starting at 30 μM (9 to 12 points). After 24 hours of incubation, cell viability was evaluated using CellTiter-Glo Luminescent Cell Viability Assay (Promega, cat #G7572). The luminescence signal was measured using a CLARIOstar Plus Multi-Mode Microplate Reader (574-590 nm).
(§4) Results were normalized to DMSO control. Collected data were analyzed using GraphPad Prism to calculate pCC50 values.

A short description of data set [1]: Cell viability assay (CellTiter-Glo), ARH-77. Format: cell-based. The settings on record: human, ARH-77 cells (lymphoblast-like, MCL-1 independent), ARH-77, 24 hours, 1% FBS, read-out: Average pCC50 by molecule ARH-77 (converted).
Description: as §1, §2, §3, §4

The target of data set [2] is [MCL-1]-[compound of formula (I)]—[CRBN/DDB1] (Homo sapiens, UniProt Q07820+Q96SW2). Nature of the data set: HTRF ternary complex formation assay. In kind it is binding. The settings on record: hMcl-1 and CRBN, 180 min at 25° C.; read-out: HTRF ternary complex Average pEC50 by molecule (converted). How it is done:
The effect of the bifunctional compounds of the invention on the formation of a ternary complex composed of [MCL-1]-[compound of formula (I)]—[CRBN/DDB1] was investigated with HTRF ternary complex assay.
Mix of protein solution was prepared: • 48 nM hMcl-1 and 105.6 nM CRBN were prepared in PPI Europium detection buffer with 2 mM DTT. • Acceptor and donor stock solutions were diluted 100 times in PPI Europium detection buffer. Equal volumes of both reagents were mixed. Finally giving 3 nM of Streptavidin-Eu cryptate ([…]) and 6.67 nM of Anti-6×his-d2 ([…]).
5 μl of protein mix was dispensed to all wells. The tested compounds in dose-response were dispensed onto a white 384-well low volume plate (Greiner, 784075). DMSO was backfilled to all wells, resulting in a final DMSO content of 0.5%. Wells containing only DMSO served as a background. Next, 5 μl of solution with donor and acceptor was added to the wells.
The plate was sealed with transparent film and shaken using a VibroTurbulator for 60 sec at level 3. The plate was then spun down shortly (10 s, 1000 rcf) and incubated at 25° C. for 180 min.
The read-out was performed with plate reader (Pherastar, BMG Labtech) in time resolved fluorescence mode. Filterset: TR 337 665 620.
The results were analyzed as follows: • 1) an average of fluorescence for background signal was calculated and used as a negative control; • 2) raw fluorescence values for tested compounds were normalized against negative controls; • 3) bell shape curve was fitted to a gaussian distribution using a non-linear least squares Gauss-Newton algorithm; • 4) EC50 and pEC50 values were determined.
For orientation: In TR-FRET formats the signal depends on donor and acceptor labels being close together.

We go through eleven compounds from US20260248927A1, “TARGETED PROTEIN DEGRADATION USING BIFUNCTIONAL COMPOUNDS THAT BIND UBIQUITIN LIGASE AND TARGET MCL-1 PROTEIN” (Captor Therapeutics S.A., priority 2022, published 2026).

Molecules are shown by their SMILES.

Sequence of [MCL-1]-[compound of formula (I)]—[CRBN/DDB1] (Q07820 whole entry): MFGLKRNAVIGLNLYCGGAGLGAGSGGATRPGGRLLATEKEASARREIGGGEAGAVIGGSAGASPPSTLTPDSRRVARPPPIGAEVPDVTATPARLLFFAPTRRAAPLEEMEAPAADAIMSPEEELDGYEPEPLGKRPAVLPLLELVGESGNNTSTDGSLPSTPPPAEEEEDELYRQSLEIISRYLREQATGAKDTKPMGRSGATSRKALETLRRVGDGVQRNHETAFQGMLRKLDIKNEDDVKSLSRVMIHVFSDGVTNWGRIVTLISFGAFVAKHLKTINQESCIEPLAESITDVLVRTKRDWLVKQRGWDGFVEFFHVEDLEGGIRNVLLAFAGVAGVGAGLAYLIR
Sequence of [MCL-1]-[compound of formula (I)]—[CRBN/DDB1] (Q96SW2 whole entry): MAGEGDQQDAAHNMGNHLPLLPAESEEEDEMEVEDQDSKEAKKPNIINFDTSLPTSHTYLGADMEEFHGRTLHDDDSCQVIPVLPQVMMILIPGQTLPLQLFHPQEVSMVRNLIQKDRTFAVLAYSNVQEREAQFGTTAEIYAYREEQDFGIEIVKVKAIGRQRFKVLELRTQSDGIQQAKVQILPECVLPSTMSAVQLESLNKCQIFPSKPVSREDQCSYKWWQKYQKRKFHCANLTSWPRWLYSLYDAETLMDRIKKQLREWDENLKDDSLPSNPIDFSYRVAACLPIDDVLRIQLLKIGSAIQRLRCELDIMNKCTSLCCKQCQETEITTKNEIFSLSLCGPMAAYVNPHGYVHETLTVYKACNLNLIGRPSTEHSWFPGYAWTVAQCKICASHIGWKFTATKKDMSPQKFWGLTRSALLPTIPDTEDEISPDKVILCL
Sequence of [MCL-1]-[compound of formula (I)]—[CRBN/DDB1] (Q16531 whole entry partner): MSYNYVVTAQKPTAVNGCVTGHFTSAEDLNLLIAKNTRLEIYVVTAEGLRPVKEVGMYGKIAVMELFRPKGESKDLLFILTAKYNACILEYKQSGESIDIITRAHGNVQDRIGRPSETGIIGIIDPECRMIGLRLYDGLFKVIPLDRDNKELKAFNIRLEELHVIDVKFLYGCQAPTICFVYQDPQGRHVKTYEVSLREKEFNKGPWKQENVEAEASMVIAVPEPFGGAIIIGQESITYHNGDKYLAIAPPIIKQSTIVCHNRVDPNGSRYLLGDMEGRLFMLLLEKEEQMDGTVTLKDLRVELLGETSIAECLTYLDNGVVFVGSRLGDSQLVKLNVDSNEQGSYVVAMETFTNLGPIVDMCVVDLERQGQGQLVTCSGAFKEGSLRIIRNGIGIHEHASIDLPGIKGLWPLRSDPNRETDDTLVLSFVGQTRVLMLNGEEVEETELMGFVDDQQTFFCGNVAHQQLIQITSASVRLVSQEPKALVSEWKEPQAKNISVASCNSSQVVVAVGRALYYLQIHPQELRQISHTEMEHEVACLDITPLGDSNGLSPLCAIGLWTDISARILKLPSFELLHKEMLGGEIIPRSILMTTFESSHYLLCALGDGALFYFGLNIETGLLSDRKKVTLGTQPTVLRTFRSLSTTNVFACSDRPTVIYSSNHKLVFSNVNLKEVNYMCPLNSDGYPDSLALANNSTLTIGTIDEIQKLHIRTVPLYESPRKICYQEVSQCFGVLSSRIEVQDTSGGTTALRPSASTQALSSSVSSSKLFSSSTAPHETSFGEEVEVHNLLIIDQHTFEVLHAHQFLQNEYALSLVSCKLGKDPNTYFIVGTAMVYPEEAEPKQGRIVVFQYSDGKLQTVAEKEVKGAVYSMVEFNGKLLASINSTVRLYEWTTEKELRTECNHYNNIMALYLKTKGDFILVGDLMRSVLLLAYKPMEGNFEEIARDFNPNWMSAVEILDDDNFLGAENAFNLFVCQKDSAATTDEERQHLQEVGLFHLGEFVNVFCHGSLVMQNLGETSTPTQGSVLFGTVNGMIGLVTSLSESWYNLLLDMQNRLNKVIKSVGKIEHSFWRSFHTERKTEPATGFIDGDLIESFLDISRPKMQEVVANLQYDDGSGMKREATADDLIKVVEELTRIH

`Cc1nc2c(OCC(=O)N3CCN(CCn4c(C(=O)O)c(CCCOc5cccc6cc(F)ccc56)c5ccc(Cl)c(-c6c(C)nn(C)c6C)c54)CC3)cccc2cc1C1CCC(=O)NC1=O` (stereo not drawn) [Compound 4, 6-Chloro-1-{2-[4-(2-{[3-(2,6-dioxopiperidin-3-yl)-2-methylquinolin-8-yl]oxy}acetyl)piperazin-1-yl]ethyl}-3-{3-[(6-fluoronaphthalen-1-yl)oxy]propyl}-7-(1,3,5-trimethyl-1H-pyrazol-4-yl)-1H-indole-2-carboxylic acid]: in the data set on MV4-11 cells, the CC50 was below 316 nM. The CC50 at 24 h in data set [1] is above 10000 nM. For the same compound, the EC50 in data set [2] was below 100 nM.
Taken in the same sequence, the figures for `Cc1nc2cc(C(=O)NCC(=O)N3CCN(CCn4c(C(=O)O)c(CCCOc5cccc6cc(F)ccc56)c5ccc(Cl)c(-c6c(C)nn(C)c6C)c54)CC3)ccc2cc1C1CCC(=O)NC1=O` (stereo not drawn) [Compound 6, 6-Chloro-1-(2-(4-((3-(2,6-dioxopiperidin-3-yl)-2-methylquinoline-7-carbonyl)glycyl)piperazin-1-yl)ethyl)-3-(3-((6-fluoronaphthalen-1-yl)oxy)propyl)-7-(1,3,5-trimethyl-1H-pyrazol-4-yl)-1H-indole-2-carboxylic acid] were below 100 nM, above 10000 nM and below 100 nM.
The matching figures for `COc1ccc2c(c1OCC(=O)N1CCN(CCn3c(C(=O)O)c(CCCOc4cccc5cc(F)ccc45)c4ccc(Cl)c(-c5c(C)nn(C)c5C)c43)CC1)CN(C1CCC(=O)NC1=O)C2=O` (stereo not drawn) [Compound 7, 6-Chloro-1-{2-[4-(2-{[2-(2,6-dioxopiperidin-3-yl)-5-methoxy-1-oxo-2,3-dihydro-1H-isoindol-4-yl]oxy}acetyl)piperazin-1-yl]ethyl}-3-{3-[(6-fluoronaphthalen-1-yl)oxy]propyl}-7-(1,3,5-trimethyl-1H-pyrazol-4-yl)-1H-indole-2-carboxylic acid]: below 100 nM, above 10000 nM and below 100 nM.
Take `Cc1nn(C)c(C)c1-c1c(Cl)ccc2c(CCCOc3cccc4cc(F)ccc34)c(C(=O)O)n(CCN3CCN(C(=O)COc4c(N(C)C)ccc5c4CN(C4CCC(=O)NC4=O)C5=O)CC3)c12` (stereo not drawn) [Compound 10, 6-Chloro-1-(2-(4-(2-((5-(dimethylamino)-2-(2,6-dioxopiperidin-3-yl)-1-oxoisoindolin-4-yl)oxy)acetyl)piperazin-1-yl)ethyl)-3-(3-((6-fluoronaphthalen-1-yl)oxy)propyl)-7-(1,3,5-trimethyl-1H-pyrazol-4-yl)-1H-indole-2-carboxylic acid]: the CC50 in the data set with MV4-11 cells is below 316 nM. Also, the CC50 at 24 h in data set [1] is above 10000 nM. In data set [2], the EC50 is below 316 nM.
Consider `Cc1nn(C)c(C)c1-c1c(Cl)ccc2c(CCCOc3cccc4cc(F)ccc34)c(C(=O)O)n(CCN3CCN(C(=O)COc4cc(N)cc5c4CN(C4CCC(=O)NC4=O)C5=O)CC3)c12` (stereo not drawn) [Compound 11, 1-{2-[4-(2-{[6-Amino-2-(2,6-dioxopiperidin-3-yl)-1-oxo-2,3-dihydro-1H-isoindol-4-yl]oxy}acetyl)piperazin-1-yl]ethyl}-6-chloro-3-{3-[(6-fluoronaphthalen-1-yl)oxy]propyl}-7-(1,3,5-trimethyl-1H-pyrazol-4-yl)-1H-indole-2-carboxylic acid], for which the CC50 in the data set with MV4-11 cells was below 100 nM. For the same compound, in data set [1], the CC50 at 24 h is above 10000 nM. The EC50 in data set [2] is below 316 nM.
In the case of `CNc1cc(OCC(=O)N2CCN(CCn3c(C(=O)O)c(CCCOc4cccc5cc(F)ccc45)c4ccc(Cl)c(-c5c(C)nn(C)c5C)c43)CC2)c2c(c1)C(=O)N(C1CCC(=O)NC1=O)C2` (stereo not drawn) [Compound 12, 6-Chloro-1-(2-(4-(2-((2-(2,6-dioxopiperidin-3-yl)-6-(methylamino)-1-oxoisoindolin-4-yl)oxy)acetyl)piperazin-1-yl)ethyl)-3-(3-((6-fluoronaphthalen-1-yl)oxy)propyl)-7-(1,3,5-trimethyl-1H-pyrazol-4-yl)-1H-indole-2-carboxylic acid], the CC50 with MV4-11 cells is below 100 nM. For the same compound, the CC50 at 24 h in data set [1] was above 31600 nM. The EC50 in data set [2] is below 316 nM.
The matching figures for `Cc1nn(C)c(C)c1-c1c(Cl)ccc2c(CCCOc3cccc4cc(F)ccc34)c(C(=O)O)n(CCN3CCN(C(=O)COc4cc(N5CCCCC5)cc5c4CN(C4CCC(=O)NC4=O)C5=O)CC3)c12` (stereo not drawn) [Compound 14, 6-Chloro-1-{2-[4-(2-{[2-(2,6-dioxopiperidin-3-yl)-1-oxo-6-(piperidin-1-yl)-2,3-dihydro-1H-isoindol-4-yl]oxy}acetyl)piperazin-1-yl]ethyl}-3-{3-[(6-fluoronaphthalen-1-yl)oxy]propyl}-7-(1,3,5-trimethyl-1H-pyrazol-4-yl)-1H-indole-2-carboxylic acid]: below 316 nM, above 3160 nM and below 31.6 nM.
Taken in the same sequence, the figures for `Cc1nn(C)c(C)c1-c1c(Cl)ccc2c(CCCOc3cccc4cc(F)ccc34)c(C(=O)O)n(CCN3CCN(C(=O)COc4cccc5c4C(C)N(C4CCC(=O)NC4=O)C5=O)CC3)c12` (stereo not drawn) [Compound 15, 6-Chloro-1-{2-[4-(2-{[2-(2,6-dioxopiperidin-3-yl)-3-methyl-1-oxo-2,3-dihydro-1H-isoindol-4-yl]oxy}acetyl)piperazin-1-yl]ethyl}-3-{3-[(6-fluoronaphthalen-1-yl)oxy]propyl}-7-(1,3,5-trimethyl-1H-pyrazol-4-yl)-1H-indole-2-carboxylic acid] were below 100 nM, above 10000 nM and below 316 nM.
Turning to `Cc1nn(C)c(C)c1-c1c(Cl)ccc2c(CCCOc3cccc4cc(F)ccc34)c(C(=O)O)n(CCN3CCN(C(=O)COc4ccc5c6c(cccc46)C(=O)N5C4CCC(=O)NC4=O)CC3)c12` (stereo not drawn) [Compound 21, 6-Chloro-1-(2-(4-(2-((1-(2,6-dioxopiperidin-3-yl)-2-oxo-1,2-dihydrobenzo[cd]indol-6-yl)oxy)acetyl)piperazin-1-yl)ethyl)-3-(3-((6-fluoronaphthalen-1-yl)oxy)propyl)-7-(1,3,5-trimethyl-1H-pyrazol-4-yl)-1H-indole-2-carboxylic acid], the CC50 in the data set on MV4-11 cells is below 316 nM. Moreover, the CC50 at 24 h in data set [1] was above 10000 nM. The EC50 in data set [2] is below 31.6 nM.
In the case of `Cc1nn(C)c(C)c1-c1c(Cl)ccc2c(CCCOc3cccc4cc(F)ccc34)c(C(=O)O)n(CCN3CCN(C(=O)COc4ccc5c(c4)n(C)c(=O)n5C4CCC(=O)NC4=O)CC3)c12` (stereo not drawn) [Compound 22, 6-Chloro-1-(2-(4-(2-((1-(2,6-dioxopiperidin-3-yl)-3-methyl-2-oxo-2,3-dihydro-1H-benzo[d]imidazol-5-yl)oxy)acetyl)piperazin-1-yl)ethyl)-3-(3-((6-fluoronaphthalen-1-yl)oxy)propyl)-7-(1,3,5-trimethyl-1H-pyrazol-4-yl)-1H-indole-2-carboxylic acid], in the data set with MV4-11 cells, the CC50 is below 31.6 nM. For the same compound, in data set [1], the CC50 at 24 h was above 31600 nM. Moreover, the EC50 in data set [2] was below 100 nM.
The matching figures for `Cc1nn(C)c(C)c1-c1c(Cl)ccc2c(CCCOc3cccc4cc(F)ccc34)c(C(=O)O)n(CCN3CCN(C(=O)COc4cccc5c4n(C)c(=O)n5C4CCC(=O)NC4=O)CC3)c12` (stereo not drawn) [Compound 23, 6-Chloro-1-(2-(4-(2-((1-(2,6-dioxopiperidin-3-yl)-3-methyl-2-oxo-2,3-dihydro-1H-benzo[d]imidazol-4-yl)oxy)acetyl)piperazin-1-yl)ethyl)-3-(3-((6-fluoronaphthalen-1-yl)oxy)propyl)-7-(1,3,5-trimethyl-1H-pyrazol-4-yl)-1H-indole-2-carboxylic acid]: below 31.6 nM, above 10000 nM and below 316 nM.
